The source of these data is patent US20260207765A1, “COVALENTLY-MODIFIED STEROID ACID-PEPTIDES HAVING ENHANCED STABILITY AND/OR BIOLOGICAL ACTIVITY” (priority 2022, published 2026).

The subject of one data set is EL4 lymphoma cells. As to the kind of experiment: Apoptosis analysis / kill curve by flow cytometry (Annexin-V, PI). The class given is cell-based, mouse. How it is done:
(§1) Apoptosis analysis was conducted by flow-cytometry. Briefly, target cells were first treated then washed. Treated cells were then re-suspended in Annexin-V staining buffer prior to staining with Annexin-V and propidium iodine (PI). Fifteen minutes later, cells were washed prior to analysis using BD FACS™ Diva on CANTOII™.
A general note: Flow cytometry measures light scatter and fluorescence of single cells or particles in a stream.

The next data set has as its system 4T1 breast cancer cells. As to the kind of experiment: Apoptosis analysis by flow cytometry. The class given is cell-based. As to conditions: 95 and 190 μM. How it is done: as §1
The next data set has as its system B16 melanoma cells. As to the kind of experiment: Apoptosis analysis by flow cytometry. In kind it is cell-based. To be noted: 95 and 190 μM. How it is done:
as §1

Data set [1] deals with CT-26 colon carcinoma cells. Nature of the data set: Apoptosis analysis by flow cytometry. In kind it is cell-based. As to conditions: 95 and 190 μM. How it is done: as §1
The subject of data set [2] is E0771 breast cancer cells. Nature of the data set: Apoptosis analysis by flow cytometry. As to conditions: 95 and 190 μM. In kind it is cell-based. The procedure:
as §1

The test system of data set [3] is JIMT-1 breast cancer cells. As to the kind of experiment: Cytotoxicity of steroid acid-peptide conjugates in JIMT-1 cells. The class given is cell-based. To be noted: 6.4 μM. How it is done: as §1
50 mg of CDCA-C-SV40 monomers (or other steroid acid-peptide monomers) were resuspended in 200-500 μL of DMSO. 10 eq of N,N-Diisopropylethylamine (DIPEA) was added to the mixture and incubated in a thermomixer at 37° C. with agitation (1000 rpm) overnight, enabling dimerization of the monomers via their N-terminal cysteine thiol groups to produce (CDCA-C-SV40)2 or other dimers. The samples were then analyzed by UPLC-MS to evaluate dimer formation efficiency. Cell toxicity was evaluated via a Cell Toxicity assay (PrestoBlue™).

Data set [4] can be described thus: Stability testing (impurities by HPLC). The class given is physicochemical. An excerpt: GMP synthesis of the CDCA-C-SV40 monomer yielded a white powder and the results of initial stability testing is summarized below:
As shown above, two main impurities were detected by HPLC relating to the reactivity of the free thiol group of the CDCA-C-SV40 monomer, namely impurities resulting from oxidation of the thiol group (Impurity A) and the formation an intermolecular disulfide bond via the thiol groups of two CDCA-C-SV40 monomers, producing a (CDCA-C-SV40)2 dimer (Impurity B).
To attempt to improve stability, the synthesis protocol of CDCA-C-SV40 was modified to produce the conjugate directly in its dimerized form (Impurity B). […] At 25° C., total impurities rose only slightly from 1.6% at Day 0 to 2.1% after 3 months. At 40° C., total impurities rose from 1.6% at Day 0 to 1.7% after 5 days, 2.4% after 10 days, and to 3.7% after 30 days.

The next data set deals with murine MSCs. Nature of the data set: Maximum tolerated dose on murine MSCs over 24 h. The class given is cell-based. To be noted: 50 μM.
The test system of data set [5] is wild-type MSC and B3Z reporter system. As to the kind of experiment: Antigen cross-presentation, wild-type MSC and B3Z reporter system. As to conditions: 100 μM.

Positions of bridges follow the written chain, without caps; N, C: chain ends. Residues, ends and D or L forms follow the SMILES beside them. Chains are numbered I, II in the order given. *: point of attachment. Chenodeoxycholyl = C[C@H](CCC(=O)*)[C@H]1CC[C@H]2[C@@H]3[C@H](O)C[C@@H]4C[C@H](O)CC[C@]4(C)[C@H]3CC[C@]12C

Regarding `CC(C)[C@H](NC(=O)[C@H](CCCCN)NC(=O)[C@H](CCCNC(=N)N)NC(=O)[C@H](CCCCN)NC(=O)[C@H](CCCCN)NC(=O)[C@H](CCCCN)NC(=O)[C@@H]1CCCN1C(=O)CNC(=O)[C@H](Cc1ccc(O)cc1)NC(=O)CNC(=O)[C@H](CSSC[C@H](NC(=O)CC[C@@H](C)[C@H]1CC[C@H]2[C@@H]3[C@H](O)C[C@@H]4C[C@H](O)CC[C@]4(C)[C@H]3CC[C@]12C)C(=O)NCC(=O)N[C@@H](Cc1ccc(O)cc1)C(=O)NCC(=O)N1CCC[C@H]1C(=O)N[C@@H](CCCCN)C(=O)N[C@@H](CCCCN)C(=O)N[C@@H](CCCCN)C(=O)N[C@@H](CCCNC(=N)N)C(=O)N[C@@H](CCCCN)C(=O)N[C@H](C(=O)NCC(=O)NCC(=O)O)C(C)C)NC(=O)CC[C@@H](C)[C@H]1CC[C@H]2[C@@H]3[C@H](O)C[C@@H]4C[C@H](O)CC[C@]4(C)[C@H]3CC[C@]12C)C(=O)NCC(=O)NCC(=O)O` [(CDCA-C-SV40)2] (I: Chenodeoxycholyl-CGYGPKKKRKVGG-OH / II: Chenodeoxycholyl-CGYGPKKKRKVGG-OH; disulfide I:1-II:1), the cytotoxicity entry in the data set on EL4 lymphoma cells (95 and 190 μM) is on record as “potent cytotoxicity”; in the data set with 4T1 breast cancer cells, “potent cytotoxicity”; with B16 melanoma cells, “potent cytotoxicity”; in data set [1], “potent cytotoxicity”; in [2] it was “potent cytotoxicity”; in data set [3] it was “potent cytotoxicity”. The EC50 in the data set on EL4 lymphoma cells (EL4 lymphoma cells, flow cytometry, read-out: EC50 (cell death / kill curve)) was found to be 3.2 µM. In addition, the “stability of dimer compared with corresponding monomer” value in [4] is given as “markedly higher stability”. In addition, the MSCs growth result in the data set on murine MSCs is listed as “diminished but was still present”. In [5], the “cell death of MSCs” value is given as “significant cell death”.
